Measurements reported in US12440528B2, “Methods of treating ovarian cancer with hemp extract” (Ecofibre USA Inc., priority 2021, dated 2025).
In brackets after ≈: the same amount, converted by molar mass. Where two headings read alike, the source gives them in different places.

Legend:
[1] = tested on: patient derived organoids; type: cell-based, human; conditions: for % Cell Death: organoid cell death; for response of the patient's organoid: organoid of the chemoresistant endometrial cancer patient
Excerpt: A few of the above drug products, as well as additional drugs were tried for response to patient derived organoids.

[2] = tested on: patient derived organoids (PD3D Cell Culture); assay: Calculated IC50 in PD3D cell culture of the patient derived organoids; type: cell-based, human
[3] = tested on: cancer organoid; assay: Effect of pH of the Cannabis extract on organoid viability; type: cell-based, human; conditions: pH 8
Method: A further interesting observation was determined by the impacts of pH on the efficacy of the Cannabis extract on organoid data. […] In each case, the control vehicle, buffered to the same pH was ineffective in killing the cells at all, and thus was not depicted. […] However, pH of 12, and certainly of 14 are highly corrosive, alkaline concentrations and are not suitable for therapeutic use.
Accordingly, when providing the Cannabis extract for therapeutic administration, […] yields an unexpected increase in efficacy.

[4] = tested on: patient derived endometrial cancer organoids; assay: Carboplatin alone or with Cannabis extract, endometrial cancer organoids; type: cell-based, human
Excerpt: To determine if this premise is conserved over different chemotherapeutic agents, Applicant repeated the tests replacing paclitaxel with carboplatin toward a related gynecological cancer cell, endometrial cancer cells. The surprising findings with paclitaxel were further confirmed by testing the impacts of carboplatin alone or carboplatin with a Cannabis extract.
Finally, with a dose of 250 μm/mL carboplatin, a 2.5× in the dose from the […] test, all of the combined therapeutics with carboplatin and Cannabis extract are below 10% viability, while the carboplatin alone remains at above 30%.

[5] = tested on: patient derived chemosensitive and chemoresistant ovarian cancer organoids; assay: Four Cannabis extracts on newly obtained ovarian cancer organoids, viability; type: cell-based, human
Method: Applicant then tested several different Cannabis extracts at varying concentrations on newly obtained patient derived chemosensitive and chemoresistant ovarian cancer organoids. […] Here, the BSHE continued to work at virtually the same level as prior tests, even though these organoids were generated from different patients than all prior tests. […] However, what remains constant is that at or about 10 μg/mL, virtually all patient derived organoid samples begin to or reach zero viability.

[6] = cited from earlier work
[7] = molecular target: P-glycoprotein (Homo sapiens, UniProt P08183); conditions: in vitro; cited from earlier work
Chain of P-glycoprotein (P08183 whole entry): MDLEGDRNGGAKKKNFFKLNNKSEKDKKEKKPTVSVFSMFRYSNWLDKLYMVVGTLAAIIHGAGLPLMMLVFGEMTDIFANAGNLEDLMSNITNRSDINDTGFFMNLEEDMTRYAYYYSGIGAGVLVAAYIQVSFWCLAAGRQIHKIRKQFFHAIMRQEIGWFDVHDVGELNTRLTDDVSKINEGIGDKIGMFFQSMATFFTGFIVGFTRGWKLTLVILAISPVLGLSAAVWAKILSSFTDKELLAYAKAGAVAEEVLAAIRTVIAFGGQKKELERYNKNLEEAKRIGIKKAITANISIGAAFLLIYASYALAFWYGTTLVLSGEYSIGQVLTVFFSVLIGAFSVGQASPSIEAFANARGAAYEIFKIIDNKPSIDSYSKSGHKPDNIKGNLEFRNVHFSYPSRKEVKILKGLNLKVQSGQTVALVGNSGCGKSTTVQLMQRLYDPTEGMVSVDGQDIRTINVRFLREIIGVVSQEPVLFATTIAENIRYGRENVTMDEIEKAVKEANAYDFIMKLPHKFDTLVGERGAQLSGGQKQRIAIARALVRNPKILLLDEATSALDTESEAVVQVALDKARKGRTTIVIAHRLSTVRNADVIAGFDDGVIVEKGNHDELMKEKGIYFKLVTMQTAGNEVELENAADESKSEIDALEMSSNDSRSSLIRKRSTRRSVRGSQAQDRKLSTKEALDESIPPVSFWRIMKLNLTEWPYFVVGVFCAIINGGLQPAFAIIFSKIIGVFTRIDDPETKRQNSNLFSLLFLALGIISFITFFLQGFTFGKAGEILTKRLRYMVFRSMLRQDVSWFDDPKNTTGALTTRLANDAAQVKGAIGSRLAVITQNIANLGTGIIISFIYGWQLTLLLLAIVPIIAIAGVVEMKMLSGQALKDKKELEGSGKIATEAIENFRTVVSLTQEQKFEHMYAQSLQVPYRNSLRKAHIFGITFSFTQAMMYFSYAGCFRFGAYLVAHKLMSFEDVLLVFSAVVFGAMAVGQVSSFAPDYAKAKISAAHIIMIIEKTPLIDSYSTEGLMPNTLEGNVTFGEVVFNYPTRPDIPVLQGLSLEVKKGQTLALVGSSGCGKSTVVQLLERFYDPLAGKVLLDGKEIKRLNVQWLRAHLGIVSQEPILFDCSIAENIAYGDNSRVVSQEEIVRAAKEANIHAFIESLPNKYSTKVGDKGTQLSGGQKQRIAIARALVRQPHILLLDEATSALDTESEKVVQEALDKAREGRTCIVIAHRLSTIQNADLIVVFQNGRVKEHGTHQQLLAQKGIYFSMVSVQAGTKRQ

[8] = chronic use, humans; cited from earlier work
[9] = tested on: chemoresistant ovarian cancer organoid
Method: To culture patient-derived organoids, 2-3×10^3 cells were plated in a pre-warmed (37° C.) 96-well plate in 10 mL of Matrigel (5%FBS AD+++ medium) per well. Individual patient cell organoid was cultured separately in different plates. Individual patient cells were handled separately to reduce the chance of cross-contamination. After mixing cells with Matrigel, 10 mL droplets were placed in wells and put in a 37° C. incubator with 5% CO2 for 30 minutes. Upon solidification of the Matrigel droplet with cells inside, the plate was placed inside a sterile hood and immersed the Matrigel droplet in 200 μL of organoid growth media. Cells were allowed to grow into mature organoids for 14 days. […] All treatments were done in triplicate, including vehicle-only controls (Dimethyl sulfoxide in culture medium at the highest concentration used for drug treatments).
To assess the cell viability in organoids after treatments, CellTiter-Glo® Luminescent Assay (Promega #G7572) was used. In brief, on day 14 of organoid culture, the matrigel droplet in each well with organoid inside was immersed in 100 μL of fresh growth media and 100 μL of CellTiter-Glo® reagent following the manufacturer's guideline. Blank wells containing only media and CellTiter Glo® reagent (no cells) were also included in each plate. Then the plates were put on a shaker @ 110 rpm at room temperature for 5 minutes to induce cell lysis, followed by 25 minutes at room temperature to stabilize the luminescent signal. Each step after adding the CellTiter Glo® reagent was performed in the dark. Luminescence was measured on a FLUOstar OPTIMA plate reader (BMG Lab technologies, Offenburg, Germany). Analysis was performed by normalizing treatment values to the vehicle control and plotting them as a percentage of the vehicle control. Drug IC50 values were determined by inhibitor vs normalized response-variable slope using least squares regression in Graphpad Prism 9.

[10] = tested on: chemosensitive ovarian cancer cells, derived from ascites cells; conditions: for viability: human, 14 days
[11] = tested on: patient derived endometrial cancer cells; type: in vivo, mice; conditions: paclitaxel alone 10 mg/kg (30.007 mg/m^2), 21 days
Method: Human patient cells from endometrial cancer were injected subcutaneously into female NOD/SCID gamma mice after resuspending in 100 μL solution. […] All treatment group mice were kept alive for up to 10 weeks after drug injection or until the tumor volume grows bigger than 2500 mm^3.

Compound | % Cell Death [1] | Calculated IC50 PD3D Cell Culture [2] | further results
5-Fluorouaracil/Capecitabine | 61% | – | –
O=C1O[C@H]([C@@H](O)CO)C(O)=C1O [Ascorbic Acid] | – | Not Reached | –
C=C(C)[C@@H]1CCC(C)=C[C@H]1c1c(O)cc(CCCCC)cc1O [CBD isolate, cannabidiol] | – | – | killing of the organoids compared with native pH [3]: virtually no change; IC50 ([4]; Homo sapiens, extract alone): 3 µg/mL (≈ 9.54 µM); viability ([4]; carboplatin 50 μm/mL with IC50 amount of extract): ~37%; improvement in viability on adding the extract ([4]; carboplatin 100 μm/mL plus IC50 amount of extract): 32%; viability at 15 µg/mL ([5]; Homo sapiens, 15 μg/mL, all samples): 0%; viability at 20 µg/mL ([5]; Homo sapiens, 20 μg/mL, all samples): 0%
C=C(C)[C@@H]1CCC(C)=C[C@H]1c1c(O)cc(CCCCC)cc1O [CBD, cannabidiol] | – | – | peak plasma concentrations of CBD ([6]; coadministration of rifampicin (a CYP3A4 inducer)): significantly reduced; peak plasma drug concentrations ([6]; coadministration of the CYP3A4 inhibitor ketoconazole): nearly doubled; time of maximum plasma concentration ([6]; oral-mucosal or sublingual delivery): 1.6 h; time of maximum plasma concentration, delayed ([6]; orally delivered, some individuals): up to 6 hours; time of maximum plasma concentration ([6]; orally delivered): 2.5 to 5 h; response of the patient's organoid [1]: significant response; inhibition of P-glycoprotein-mediated drug transport [7]: significantly inhibits; doses established as well tolerated [8]: up to 1,500 mg/day
C=C(C)[C@@H]1CCC(C)=C[C@H]1c1c(O)cc(CCCCC)c(C(=O)O)c1O [CBDA, cannabidiolic acid] | – | – | viability ([5]; 50 μg/mL): nearing zero viability
CO[C@H]1C(=O)[C@]2(C)[C@@H](OC)C[C@H]3OC[C@@]3(OC(C)=O)[C@H]2[C@H](OC(=O)c2ccccc2)[C@]2(O)C[C@H](OC(=O)[C@H](O)[C@@H](NC(=O)OC(C)(C)C)c3ccccc3)C(C)=C1C2(C)C [Cabazitaxel] | 37% | – | –
N.N.O=C([O-])C1(C(=O)[O-])CCC1.[Pt+2] [Carboplatin] | 30% | – | viability ([4]; carboplatin alone 50 μg/mL): about 50%; viability ([4]; carboplatin alone 100 μg/mL): about 50%; total drop in viability on increasing the dose by 5× ([4]; carboplatin alone 50 to 250 μm/mL): about 17%
N.N.[Cl][Pt][Cl] [Cisplatin] | 36% | – | –
O=C(c1ccc(F)c(F)c1Nc1ccc(I)cc1F)N1CC(O)([C@@H]2CCCCN2)C1 [Cobimetinib] | – | Not Reached | –
C[C@@H](Oc1cc(-c2cnn(C3CCNCC3)c2)cnc1N)c1c(Cl)ccc(F)c1Cl [Crizotinib] | – | Not Reached | –
O=P1(N(CCCl)CCCl)NCCCO1 (centres unmarked) [Cyclosphosphamide] | 32% | – | –
CN(C)/N=N/c1[nH]cnc1C(N)=O [Dacarbazine] | 32% | – | –
O=C(O)C(Cl)Cl [Dichloracetate] | – | Not Reached | –
CC(=O)O[C@@]12CO[C@@H]1C[C@H](O)[C@@]1(C)C(=O)[C@H](O)C3=C(C)[C@@H](OC(=O)[C@H](O)[C@@H](NC(=O)OC(C)(C)C)c4ccccc4)C[C@@](O)([C@@H](OC(=O)c4ccccc4)[C@H]21)C3(C)C [Docetaxel] | No Response | – | –
COc1cccc2c1C(=O)c1c(O)c3c(c(O)c1C2=O)C[C@@](O)(C(=O)CO)C[C@@H]3O[C@H]1C[C@H](N)[C@H](O)[C@H](C)O1 [Doxorubicin] | 39% | – | –
COc1cc([C@@H]2c3cc4c(cc3[C@@H](O[C@@H]3O[C@@H]5CO[C@@H](C)O[C@H]5[C@H](O)[C@H]3O)[C@H]3COC(=O)[C@H]23)OCO4)cc(OC)c1O [Etoposide] | 33% | – | –
Nc1ccn([C@@H]2O[C@H](CO)[C@@H](O)C2(F)F)c(=O)n1 [Gemcitabine] | 56% | – | –
N[C@@H](CCC(=O)N[C@@H](CS)C(=O)NCC(=O)O)C(=O)O [Glutathione] | – | Not Reached | –
CCN(CCO)CCCC(C)Nc1ccnc2cc(Cl)ccc12 (centres unmarked) [Hydroxychloroquine] | – | Not Reached | –
CCc1c2c(nc3ccc(OC(=O)N4CCC(N5CCCCC5)CC4)cc13)-c1cc3c(c(=O)n1C2)COC(=O)[C@]3(O)CC [Irinotecan] | 51% | – | –
COc1cc2nccc(Oc3ccc(NC(=O)NC4CC4)c(Cl)c3)c2cc1C(N)=O [Lenvatinib] | – | Not Reached | –
N[C@@H](Cc1ccc(N(CCCl)CCCl)cc1)C(=O)O [Melphalan] | 40% | – | –

Compound | % Cell Death [1] | Calculated IC50 PD3D Cell Culture [2] | further results
CN(C)C(=N)N=C(N)N [Metformin] | – | Not Reached | –
O=C1c2c(O)ccc(O)c2C(=O)c2c(NCCNCCO)ccc(NCCNCCO)c21 [Mitoxantrone] | 50% | – | –
O=C(c1cc(Cc2n[nH]c(=O)c3ccccc23)ccc1F)N1CCN(C(=O)C2CC2)CC1 [Olaparib] | – | Not Reached | –
CC(=O)O[C@H]1C(=O)[C@@]2(C)[C@H]([C@H](OC(=O)c3ccccc3)[C@]3(O)C[C@H](OC(=O)[C@H](O)[C@@H](NC(=O)c4ccccc4)c4ccccc4)C(C)=C1C3(C)C)[C@]1(OC(C)=O)CO[C@@H]1C[C@@H]2O [Paclitaxel] | 39% | – | viability ([9]; paclitaxel alone 4 nm/mL): 45%; change in viability on adding 5× more paclitaxel ([9]; paclitaxel alone 4 to 20 nm/mL): about 3%; viability ([9]; paclitaxel alone, 5× more (20 nm/mL)): 42%; viability ([10]; 4 nm/mL): about 89%; viability ([10]; 20 nm/mL): about 57%; change in viability on increasing the dose by 5× ([10]; paclitaxel alone 4 to 20 nm/mL): 32%; overall kill rate ([10]; paclitaxel alone, highest dose (20 nm/mL)): less than 50%; effect on tumor volume / tumor growth [11]: ineffective in reducing tumor growth; effect on tumor volume / tumor growth ([11]; listed as paclitaxel): in essence ineffective
Nc1nc2[nH]cc(CCc3ccc(C(=O)N[C@@H](CCC(=O)O)C(=O)O)cc3)c2c(=O)[nH]1 [Pemetrexed] | No Response | Not Reached | –
Nc1cccc2c1C(=O)N(C1CCC(=O)NC1=O)C2=O (centres unmarked) [Pomalidomide] | – | Not Reached | –
CCN(CC)CCNC(=O)c1c(C)[nH]c(/C=C2\C(=O)Nc3ccc(F)cc32)c1C [Sunitnib] | – | Not Reached | –
Cn1nnc2c(C(N)=O)ncn2c1=O [Temozolomide] | 40% | – | –
COc1cc2c(cc1O)CCN[C@]21CS[C@@H]2c3c(OC(C)=O)c(C)c4c(c3[C@H](COC1=O)N1[C@@H]2[C@H]2c3c(cc(C)c(OC)c3O)C[C@@H]([C@@H]1O)N2C)OCO4 [Trabectedine] | 32% | – | –
CC[C@]1(O)C[C@@H]2CN(CCc3c([nH]c4ccccc34)[C@@](C(=O)OC)(c3cc4c(cc3OC)N(C)[C@H]3[C@@](O)(C(=O)OC)[C@H](OC(C)=O)[C@]5(CC)C=CCN6CC[C@]43[C@@H]65)C2)C1 [Vinblastine] | 38% | – | –
CCC1=C[C@@H]2CN(C1)Cc1c([nH]c3ccccc13)[C@@](C(=O)OC)(c1cc3c(cc1OC)N(C)[C@H]1[C@@](O)(C(=O)OC)[C@H](OC(C)=O)[C@]4(CC)C=CCN5CC[C@]31[C@@H]54)C2 [Vinorelbine] | 45% | – | –
COc1cccc2c1C(=O)c1c(O)c3c(c(O)c1C2=O)C[C@@](O)(C(=O)CO)C[C@@H]3O[C@H]1C[C@H](N)[C@@H](O)[C@H](C)O1 [epirubicin] | No Response | – | –
C=C1C[C@@H]2CC[C@@]34C[C@H]5O[C@H]6[C@@H](O3)[C@H]3O[C@H](CC[C@@H]3O[C@H]6[C@H]5O4)CC(=O)C[C@@H]3[C@@H](OC)[C@@H](C[C@H](O)CN)O[C@H]3C[C@H]3O[C@@H](CC[C@@H]1O2)C[C@@H](C)C3=C [eribulin] | No Response | – | –
O=P1(NCCCl)OCCCN1CCCl (centres unmarked) [ifosfamide] | No Response | – | –
CN(Cc1cnc2nc(N)nc(N)c2n1)c1ccc(C(=O)N[C@@H](CCC(=O)O)C(=O)O)cc1 [methotrexate] | No Response | – | –
CO[C@@]12[C@H](COC(N)=O)C3=C(C(=O)C(C)=C(N)C3=O)N1C[C@@H]1N[C@@H]12 [mitomycin] | No Response | – | –
O=C1[O][Pt]2([NH][C@@H]3CCCC[C@H]3[NH]2)[O]C1=O [oxaliplatin] | No Response | – | –
CC[C@]1(O)C[C@H]2CN(CCc3c([nH]c4ccccc34)[C@@](C(=O)OC)(c3cc4c(cc3OC)N(C=O)[C@H]3[C@@](O)(C(=O)OC)[C@H](OC(C)=O)[C@]5(CC)C=CCN6CC[C@]43[C@@H]65)C2)C1 [vincristine] | No Response | – | –
Bevacizumab | – | Not Reached | –
Bleomycin | 53% | – | –
gemcitabine/capecitabine [GemCap] | – | – | response of the patient's organoid [1]: partial response
